Measured values as given in the NIST ThermoML archive (doi:10.1021/je500804j).

Test: mn = molality of the nth substance listed, in mol/kg
Conditions: 101 kPa, Liquid, Alternating current cell with electrodes

CCCCCCCC[N+](C)(C)CCCCCC[N+](C)(C)CCCCCCCC.[Br-].[Br-] + O
Conditions | electrical conductivity [S/m]
288.15 K, m1 = 0.00378 | 0.05571
288.15 K, m1 = 0.00747 | 0.1028
288.15 K, m1 = 0.01106 | 0.1443
288.15 K, m1 = 0.01457 | 0.1827
288.15 K, m1 = 0.01799 | 0.2183
288.15 K, m1 = 0.02133 | 0.252
288.15 K, m1 = 0.02458 | 0.2838
288.15 K, m1 = 0.02776 | 0.3124
288.15 K, m1 = 0.03087 | 0.3407
288.15 K, m1 = 0.0339 | 0.3668
288.15 K, m1 = 0.03687 | 0.3917
288.15 K, m1 = 0.03977 | 0.4158
288.15 K, m1 = 0.0426 | 0.4383
288.15 K, m1 = 0.04537 | 0.4604
288.15 K, m1 = 0.04808 | 0.4812
288.15 K, m1 = 0.05073 | 0.5011
288.15 K, m1 = 0.05333 | 0.521
288.15 K, m1 = 0.05587 | 0.5391
288.15 K, m1 = 0.05835 | 0.555
288.15 K, m1 = 0.06079 | 0.5717
288.15 K, m1 = 0.06318 | 0.5855
288.15 K, m1 = 0.06551 | 0.6042
288.15 K, m1 = 0.0678 | 0.6203
288.15 K, m1 = 0.07005 | 0.6375
288.15 K, m1 = 0.07225 | 0.653
288.15 K, m1 = 0.07441 | 0.6677
288.15 K, m1 = 0.07652 | 0.6826
288.15 K, m1 = 0.0786 | 0.6955
288.15 K, m1 = 0.08064 | 0.7092
288.15 K, m1 = 0.08264 | 0.7199
288.15 K, m1 = 0.0846 | 0.7323
288.15 K, m1 = 0.08652 | 0.7423
288.15 K, m1 = 0.08841 | 0.7524
288.15 K, m1 = 0.09027 | 0.7618
288.15 K, m1 = 0.09209 | 0.7705
288.15 K, m1 = 0.09388 | 0.7794
288.15 K, m1 = 0.09564 | 0.7883
288.15 K, m1 = 0.09737 | 0.7958
288.15 K, m1 = 0.09907 | 0.8039
288.15 K, m1 = 0.1007 | 0.812
288.15 K, m1 = 0.1024 | 0.817
288.15 K, m1 = 0.104 | 0.8214
288.15 K, m1 = 0.1056 | 0.8271
288.15 K, m1 = 0.1071 | 0.8323
288.15 K, m1 = 0.1087 | 0.836
288.15 K, m1 = 0.1102 | 0.8402
288.15 K, m1 = 0.1117 | 0.8452
288.15 K, m1 = 0.1131 | 0.8492
288.15 K, m1 = 0.1146 | 0.8528
288.15 K, m1 = 0.116 | 0.8565
293.15 K, m1 = 0.00416 | 0.07018
293.15 K, m1 = 0.00821 | 0.09599
293.15 K, m1 = 0.01215 | 0.154
293.15 K, m1 = 0.01598 | 0.2062
293.15 K, m1 = 0.01972 | 0.2543
293.15 K, m1 = 0.02336 | 0.2987
293.15 K, m1 = 0.02691 | 0.3399
293.15 K, m1 = 0.03037 | 0.3785
293.15 K, m1 = 0.03374 | 0.415
293.15 K, m1 = 0.03704 | 0.4499
293.15 K, m1 = 0.04025 | 0.4818
293.15 K, m1 = 0.04339 | 0.5127
293.15 K, m1 = 0.04645 | 0.5415
293.15 K, m1 = 0.04944 | 0.5687
293.15 K, m1 = 0.05237 | 0.5953
293.15 K, m1 = 0.05523 | 0.6199
293.15 K, m1 = 0.05802 | 0.6436
293.15 K, m1 = 0.06075 | 0.6658
293.15 K, m1 = 0.06342 | 0.6867
293.15 K, m1 = 0.06604 | 0.707
293.15 K, m1 = 0.06859 | 0.7264
293.15 K, m1 = 0.0711 | 0.7446
293.15 K, m1 = 0.07355 | 0.762
293.15 K, m1 = 0.07595 | 0.7782
293.15 K, m1 = 0.0783 | 0.7934
293.15 K, m1 = 0.0806 | 0.8076
293.15 K, m1 = 0.08285 | 0.8213
293.15 K, m1 = 0.08507 | 0.8335
293.15 K, m1 = 0.08723 | 0.8458
293.15 K, m1 = 0.08936 | 0.8569
293.15 K, m1 = 0.09144 | 0.8677
293.15 K, m1 = 0.09348 | 0.8777
293.15 K, m1 = 0.09549 | 0.8873
293.15 K, m1 = 0.09745 | 0.8958
293.15 K, m1 = 0.09938 | 0.9045
293.15 K, m1 = 0.1013 | 0.9127
293.15 K, m1 = 0.1031 | 0.9206
293.15 K, m1 = 0.105 | 0.9279
293.15 K, m1 = 0.1068 | 0.9349
293.15 K, m1 = 0.1085 | 0.9413
293.15 K, m1 = 0.1103 | 0.9468
293.15 K, m1 = 0.1119 | 0.9533
293.15 K, m1 = 0.1136 | 0.9594
293.15 K, m1 = 0.1153 | 0.9653
293.15 K, m1 = 0.1169 | 0.9709
293.15 K, m1 = 0.1185 | 0.9766
293.15 K, m1 = 0.12 | 0.9819
293.15 K, m1 = 0.1216 | 0.9868
293.15 K, m1 = 0.1231 | 0.9919
293.15 K, m1 = 0.1245 | 0.9968
298.15 K, m1 = 0.00419 | 0.07905
298.15 K, m1 = 0.00827 | 0.1464
298.15 K, m1 = 0.01224 | 0.2076
298.15 K, m1 = 0.0161 | 0.2647
298.15 K, m1 = 0.01987 | 0.3161
298.15 K, m1 = 0.02353 | 0.3644
298.15 K, m1 = 0.02711 | 0.4098
298.15 K, m1 = 0.03059 | 0.4515
298.15 K, m1 = 0.03399 | 0.4914
298.15 K, m1 = 0.0373 | 0.5292
298.15 K, m1 = 0.04053 | 0.5645
298.15 K, m1 = 0.04369 | 0.5979
298.15 K, m1 = 0.04677 | 0.6299
298.15 K, m1 = 0.04978 | 0.6602
298.15 K, m1 = 0.05272 | 0.6887
298.15 K, m1 = 0.05559 | 0.7156
298.15 K, m1 = 0.0584 | 0.7419
298.15 K, m1 = 0.06114 | 0.7666
298.15 K, m1 = 0.06383 | 0.7898
298.15 K, m1 = 0.06645 | 0.812
298.15 K, m1 = 0.06902 | 0.833
298.15 K, m1 = 0.07154 | 0.8526
298.15 K, m1 = 0.074 | 0.8713
298.15 K, m1 = 0.07641 | 0.8887
298.15 K, m1 = 0.07877 | 0.9051
298.15 K, m1 = 0.08108 | 0.9203
298.15 K, m1 = 0.08334 | 0.9348
298.15 K, m1 = 0.08556 | 0.9485
298.15 K, m1 = 0.08773 | 0.9616
298.15 K, m1 = 0.08987 | 0.9739
298.15 K, m1 = 0.09196 | 0.9852
298.15 K, m1 = 0.09401 | 0.9959
298.15 K, m1 = 0.09602 | 1.006
298.15 K, m1 = 0.09799 | 1.016
298.15 K, m1 = 0.09992 | 1.025
298.15 K, m1 = 0.1018 | 1.033
298.15 K, m1 = 0.1037 | 1.042
298.15 K, m1 = 0.1055 | 1.05
298.15 K, m1 = 0.1073 | 1.058
298.15 K, m1 = 0.1091 | 1.066
298.15 K, m1 = 0.1108 | 1.073
298.15 K, m1 = 0.1125 | 1.08
298.15 K, m1 = 0.1142 | 1.087
298.15 K, m1 = 0.1158 | 1.094
298.15 K, m1 = 0.1174 | 1.1
298.15 K, m1 = 0.119 | 1.107
298.15 K, m1 = 0.1206 | 1.112
298.15 K, m1 = 0.1221 | 1.118
298.15 K, m1 = 0.1236 | 1.124
298.15 K, m1 = 0.1251 | 1.13
303.15 K, m1 = 0.00379 | 0.0878
303.15 K, m1 = 0.00748 | 0.1271
303.15 K, m1 = 0.01108 | 0.1968
303.15 K, m1 = 0.01459 | 0.2594
303.15 K, m1 = 0.01801 | 0.3174
303.15 K, m1 = 0.02135 | 0.3714
303.15 K, m1 = 0.02461 | 0.4209
303.15 K, m1 = 0.02779 | 0.4681
303.15 K, m1 = 0.0309 | 0.5124
303.15 K, m1 = 0.03394 | 0.5542
303.15 K, m1 = 0.03691 | 0.5939
303.15 K, m1 = 0.03981 | 0.6314
303.15 K, m1 = 0.04264 | 0.6668
303.15 K, m1 = 0.04542 | 0.7005
303.15 K, m1 = 0.04813 | 0.7326
303.15 K, m1 = 0.05078 | 0.7638
303.15 K, m1 = 0.05338 | 0.7917
303.15 K, m1 = 0.05592 | 0.8194
303.15 K, m1 = 0.05841 | 0.8457
303.15 K, m1 = 0.06085 | 0.8704
303.15 K, m1 = 0.06324 | 0.8926
303.15 K, m1 = 0.06558 | 0.9126
303.15 K, m1 = 0.06787 | 0.9342
303.15 K, m1 = 0.07011 | 0.9547
303.15 K, m1 = 0.07232 | 0.9738
303.15 K, m1 = 0.07448 | 0.9921
303.15 K, m1 = 0.07659 | 1.01
303.15 K, m1 = 0.07867 | 1.026
303.15 K, m1 = 0.08071 | 1.04
303.15 K, m1 = 0.08271 | 1.055
303.15 K, m1 = 0.08467 | 1.069
303.15 K, m1 = 0.0866 | 1.082
303.15 K, m1 = 0.08849 | 1.094
303.15 K, m1 = 0.09034 | 1.107
303.15 K, m1 = 0.09217 | 1.118
303.15 K, m1 = 0.09396 | 1.129
303.15 K, m1 = 0.09572 | 1.139
303.15 K, m1 = 0.09745 | 1.148
303.15 K, m1 = 0.09915 | 1.158
303.15 K, m1 = 0.1008 | 1.168
303.15 K, m1 = 0.1025 | 1.175
303.15 K, m1 = 0.1041 | 1.183
303.15 K, m1 = 0.1057 | 1.191
303.15 K, m1 = 0.1072 | 1.198
303.15 K, m1 = 0.1087 | 1.206
303.15 K, m1 = 0.1103 | 1.215
303.15 K, m1 = 0.1118 | 1.22
303.15 K, m1 = 0.1132 | 1.228
